Assay results as given in PMC12120630, “Nicotianin-I: A Tobacco Floral Nectar Peptide with Anticandidal Activity” (ACS Omega, 2025).
Converted amounts (≈) assume the structure as drawn. “And” between values parts separate entries of the source, which are not always exact repeats. Equal entries are not always repeated. Residues, ends and D or L forms follow the SMILES beside them.

What was measured:
[1] = test system: C. albicans; details: cited from earlier work
[2] = test system: C. parapsilosis; design: method as in PMID 35456530; details: cited from earlier work
[3] = test system: C. albicans, C. krusei, C. parapsilosis, and C. tropicalis; assay: Anticandidal activity, statements for all strains tested; assay type: cell-based, Candida spp.; details: peptide 200 to 1.56 μM, 24 h, 37 °C
Method: (§1) The anticandidal activity was performed against the following species: C. albicans (ATCC 10231), C. krusei (ATCC 22019), C. parapsilosis (ATCC 6258), and C. tropicalis (INCQS 40042). The cell concentration was standardized by OD600 nm to achieve a concentration of 1.5 × 10^3 CFU/mL. The assays were performed using 96-well microplates, mixing the cell suspensions (100 μL) with 100 μL of each peptide serially diluted (200 to 1.56 μM, final concentrations) in 0.15 M NaCl containing 5% DMSO (dimethyl sulfoxide), which was used as a control. The plates were incubated for 24 h at 37 °C under agitation (150 rpm), and the readings were done at 600 nm using a Microtiter Plate Reader. The results are shown as the percentage of growth, considering the OD600 nm of the control as 100%.

[4] = test system: L929 (murine fibroblast) cells; details: L929, 200 μM
Method: Cell viability of peptide-treated fibroblast cells was tested by the MTT method. Shortly, L929 cells were trypsinized (trypsin–EDTA solution) and seeded into 96-well plates with DMEM (100 μL) at 1 × 10^5 cells/mL for 48 h, followed by the addition of the same volume of serially diluted nicotianin-I (200–1.56 μM) and negative control (0.15 M NaCl). The images were captured with the aid of an optical microscope coupled with phase contrast (AE200, Motic, Barcelona, CT, ES) under 200× magnification. Finally, 10 μL of 5 mg/mL MTT was added to each well, and the mixture was incubated at 37 °C for 3 h. Formazan was solubilized with DMSO (150 μL), and the OD570 nm was measured in a microplate reader.

[5] = test system: C. albicans (ATCC 10231); assay type: cell-based, Candida albicans; details: ATCC 10231, 24 h
Method: as §1

[6] = test system: C. krusei (ATCC 22019); assay type: cell-based, Candida krusei; details: ATCC 22019, 24 h
Method: as §1

[7] = test system: C. parapsilosis (ATCC 6258); assay type: cell-based, Candida parapsilosis; details: ATCC 6258, 24 h
Method: as §1

[8] = test system: C. tropicalis (INCQS 40042); assay type: cell-based, Candida tropicalis; details: INCQS 40042, 24 h
Method: as §1

[9] = test system: human erythrocyte (type O); details: 200 μM; 1% human erythrocytes, 1 h, 37 °C, OD414; relative to 0.1% Triton-X-100
Method: To assess a possible indicator of cytotoxicity, 150 μL of nicotianin-I, serially diluted with 0.15 M NaCl containing 5% DMSO, was incubated at 37 °C for 1 h with the same volume of 1% human erythrocyte (type O), which was obtained from the Hematology and Hemotherapy Center of Ceará, Brazil. Samples were centrifuged for 5 min at 2500g, and the supernatant was transferred to 96-well microplates. Released hemoglobin content was measured at OD414 nm. 0.1% Triton-X-100 and 0.15 M NaCl containing 5% DMSO were used as the positive and negative controls, respectively.

[10] = test system: Zebrafish embryos (AB wild-type strain); assay: Fish Embryo Acute Toxicity (FET) test, OECD 236 adapted for 96-well plate; assay type: in vivo
Method: Zebrafish embryos (AB wild-type strain) with approximately 1 h postfertilization (hpf) were provided by the Production Unit for Alternative Model Organisms (UniPOM), Federal University of Paraiba (UFPB), João Pessoa, Brazil. A day before the experiment, zebrafish adults (male/female ratio of 2:1) were transferred to a 7 L spawning tank with a bottom mesh and a quick-opening valve for embryo collection. Embryos were collected on the day of the experiment and cultured in the adapted embryonic medium E3 (5.0 mM NaCl, 0.17 mM KCl, 0.33 mM CaCl, and 0.33 mM MgSO4) containing 0.005% methylene blue. Only spawnings with a fertilization rate ≥90% were used. Viable embryos (normal cleavage pattern and without morphological changes) were selected using an inverted light microscope (Televal 31, Zeiss, Germany) at 50× magnification. The experiments were approved by the Ethics Committee on the Use of Animals at UFPB, with authorization documented by protocol no. 4460140920.
The Fish Embryo Acute Toxicity (FET test) test was conducted according to OECD’s guideline number 236 adapted for 96-well plate, as described by Muniz et al. Zebrafish embryos with up to 3 hpf were exposed to five concentrations (6.25, 12.5, 25, 50, and 100 μg/mL) of nicotianin-I, with the last concentration being adopted as a limit concentration. Twenty wells were filled with 0.3 mL of E3 medium and 1 embryo. In the same conditions, E3 medium and 0.15 M NaCl containing 5% DMSO were used as controls.
Embryos showing lethality end points (embryo coagulation, lack of somite formation, nondetachment of the tail bud, and lack of heartbeat) were considered dead. This number was used to determine the survival rate % [number of alive organisms/total number of organisms × 100] per tested concentration. The exposures were under static conditions (without renovation of the exposure solution). Observations were performed using a stereomicroscope at a 50× magnification. After 96 h, the surviving larvae were euthanized with eugenol and properly discarded.

[11] = test system: zebrafish embryos; details: cited from earlier work

C[C@@H]1[C@H](O)[C@@H](C)/C=C/C=C/C=C/C=C/C=C/C=C/C=C/[C@H](O[C@@H]2O[C@H](C)[C@@H](O)[C@H](N)[C@@H]2O)C[C@@H]2O[C@](O)(C[C@@H](O)C[C@@H](O)[C@H](O)CC[C@@H](O)C[C@@H](O)CC(=O)O[C@H]1C)C[C@H](O)[C@H]2C(=O)O [Amphotericin B]
MIC [1]: 0.25 µg/mL (≈ 0.271 µM)
MIC [2]: 0.25 µg/mL (≈ 0.271 µM)

CC(C)[C@H](N)C(=O)N[C@@H](CS)C(=O)N1CCC[C@H]1C(=O)N[C@@H](CS)C(=O)N[C@@H](C)C(=O)N[C@@H](CS)C(=O)N[C@@H](CS)C(=O)N[C@@H](CO)C(=O)N[C@H](C(=O)N1CCC[C@H]1C(=O)N[C@@H](CCCNC(=N)N)C(=O)N[C@@H](CCCNC(=N)N)C(=O)N[C@H](C(=O)O)C(C)C)[C@@H](C)O [Pep1] (H-VCPCACCSTPRRV-OH; N-terminus and C-terminus assumed)
in vitro antifungal activity (growth inhibition), in words [3]: negligible or no significant inhibition
reduction of cellular viability (up to) ([4]; MTT, OD570): 80.95%

CC(C)C[C@H](NC(=O)[C@H](CS)NC(=O)[C@H](Cc1ccc(O)cc1)NC(=O)CNC(=O)[C@H](Cc1c[nH]cn1)NC(=O)[C@H](CCCNC(=N)N)NC(=O)[C@@H](NC(=O)[C@H](CS)NC(=O)[C@H](CO)NC(=O)[C@H](Cc1ccc(O)cc1)NC(=O)[C@H](Cc1c[nH]cn1)NC(=O)[C@@H](N)CCCCN)[C@@H](C)O)C(=O)N[C@@H](C)C(=O)N[C@@H](CS)C(=O)N[C@@H](Cc1ccc(O)cc1)C(=O)N[C@@H](CCCCN)C(=O)N[C@@H](CCCNC(=N)N)C(=O)N[C@@H](Cc1c[nH]c2ccccc12)C(=O)N[C@@H](Cc1ccccc1)C(=O)O [nicotianin-I] (H-KHYSCTRHGYCLACYKRWF-OH)
IC50 [5]: 80 ± 4.6 µM
MIC [5]: 120 ± 9.3 µM (≈ 291 µg/mL)
IC50 [6]: 57 ± 3.7 µM
MIC [6]: 133 ± 8.6 µM (≈ 322 µg/mL)
IC50 [7]: 46 ± 2.2 µM
MIC [7]: 141 ± 7.1 µM (≈ 342 µg/mL)
IC50 [8]: 24 ± 1.9 µM
MIC [8]: 86 ± 3.6 µM (≈ 208 µg/mL)
maximum percentage of hemolysis [9]: 28.1%
survival rate ([10]; 50 μg/mL (21 μM), 96 h exposure, static, 20 embryos per concentration): 90%
mortality rate ([10]; 100 μg/mL or 42 μM (highest concentration), as stated in the abstract): 40%
blood clotting ([10]; 6.25–100 μg/mL, 96 h): n.e. (n.e.: no effect or less than 20% of embryos affected)
body pigmentation ([10]; 6.25–100 μg/mL, 96 h): n.e. (n.e.: no effect or less than 20% of embryos affected)
eye malformation ([10]; 6.25–100 μg/mL, 96 h): n.e. ^b (n.e.: no effect or less than 20% of embryos affected)
granules around the embryo (LOAEL) ([10]; 6.25–100 μg/mL, 96 h): 100 µg/mL
hatching delay (LOAEL) ([10]; 6.25–100 μg/mL, 96 h): 100 µg/mL
mouth malformation ([10]; 6.25–100 μg/mL, 96 h): n.e. (n.e.: no effect or less than 20% of embryos affected)
otolith malformation ([10]; 6.25–100 μg/mL, 96 h): n.e. (n.e.: no effect or less than 20% of embryos affected)
pericardial edema ([10]; 6.25–100 μg/mL, 96 h): n.e
spine malformation ([10]; 6.25–100 μg/mL, 96 h): n.e. (n.e.: no effect or less than 20% of embryos affected)
undersize ([10]; 6.25–100 μg/mL, 96 h): n.e. (n.e.: no effect or less than 20% of embryos affected)
yolk sac edema ([10]; 6.25–100 μg/mL, 96 h): n.e. (n.e.: no effect or less than 20% of embryos affected)
lowest observed adverse effect level (LOAEL) ([10]; nonlethal effects: hatching delay, granules around the embryo): 100 µg/mL
LC50 (mortality) ([10]; zebrafish embryos, 96 h exposure): 131 µg/mL and 131.85 µg/mL
LC50 ([10]; zebrafish embryos, 96 h exposure, same value given in μM): 54 µM
cytotoxicity to fibroblasts, in words ([4]; MTT and phase contrast microscopy): no cytotoxicity

C[C@@H]1[C@H](O)[C@@H](C)/C=C/C=C/CC/C=C/C=C/C=C/C=C/C(O[C@H]2O[C@H](C)[C@@H](O)[C@H](N)[C@@H]2O)CC2O[C@](O)(CC(O)C(O)CCC(O)CC(O)CC(O)CC(=O)O[C@H]1C)CC(O)C2C(=O)O (some centres unmarked) [nystatin]
MIC [1]: 1 µg/mL (≈ 1.08 µM)
MIC [2]: 1 µg/mL (≈ 1.08 µM)
LC50 ([11]; zebrafish embryos at 120 h postfertilization): 6.2 µg/mL (≈ 6.69 µM)
exposure concentration causing cardiac abnormalities (pericardial edema, reduced heartbeat) ([11]; zebrafish embryos, Nys 3 × MIC, AmB 3.2 × MIC): 3 µg/mL

EYCSAKSAKPGVHCRSCALVNMYK [Pep2, ornamental tobacco floral nectar peptide […]]
in vitro antifungal activity (growth inhibition), in words [3]: negligible or no significant inhibition

HRFSYMCFVAQVLNKDYCSCCKF [Pep5, ornamental tobacco floral nectar peptide […]]
in vitro antifungal activity (growth inhibition), in words [3]: negligible or no significant inhibition

LHSGEGSTCYFFKTNPCCCGTWNCT [Pep3, ornamental tobacco floral nectar peptide […]]
in vitro antifungal activity (growth inhibition), in words [3]: negligible or no significant inhibition

WKCGSTPAPRKYCTCVAKMW [Pep4, ornamental tobacco floral nectar peptide […]]
in vitro antifungal activity (growth inhibition), in words [3]: negligible or no significant inhibition
